Test results: PMC5542762 (ChemistryOpen, 2017)
Where a name gives a salt, the structure may show the parent alone.

Experiments:
EcTAL = molecular target: T1, EcTAL (Escherichia coli, UniProt P04968); test: HPLC of remaining L-threonine after FDAA derivatization; assay type: biochemical; settings: L-threonine 100 mM, pyridoxal phosphate 10 μM; Na2CO3-NaHCO3 100 mM, pH 9.0, 30 °C
T1 sequence (P04968 1-514): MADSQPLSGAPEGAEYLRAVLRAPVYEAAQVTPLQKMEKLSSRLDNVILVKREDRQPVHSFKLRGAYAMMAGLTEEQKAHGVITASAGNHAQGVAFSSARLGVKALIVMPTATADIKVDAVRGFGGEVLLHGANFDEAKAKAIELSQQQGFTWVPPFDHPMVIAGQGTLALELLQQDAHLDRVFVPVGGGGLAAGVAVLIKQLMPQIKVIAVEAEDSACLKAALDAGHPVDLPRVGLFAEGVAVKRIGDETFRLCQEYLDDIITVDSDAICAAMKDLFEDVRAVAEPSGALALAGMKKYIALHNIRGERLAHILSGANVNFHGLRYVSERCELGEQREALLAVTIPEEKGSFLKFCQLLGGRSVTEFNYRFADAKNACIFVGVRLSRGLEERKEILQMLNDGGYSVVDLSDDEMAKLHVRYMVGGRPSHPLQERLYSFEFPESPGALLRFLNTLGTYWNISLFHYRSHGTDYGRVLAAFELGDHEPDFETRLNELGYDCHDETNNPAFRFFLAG

PFDH = molecular target: T2, PFDH (Pseudomonas sp. 101, UniProt P33160); test: NAD+ reduction at […] nm, 96-well plate; assay type: biochemical; settings: sodium formate 20 mM, NAD+ 0.50 mM; Na2CO3-NaHCO3 100 mM, pH 9.0, room temperature
T2 sequence (P33160 2-401): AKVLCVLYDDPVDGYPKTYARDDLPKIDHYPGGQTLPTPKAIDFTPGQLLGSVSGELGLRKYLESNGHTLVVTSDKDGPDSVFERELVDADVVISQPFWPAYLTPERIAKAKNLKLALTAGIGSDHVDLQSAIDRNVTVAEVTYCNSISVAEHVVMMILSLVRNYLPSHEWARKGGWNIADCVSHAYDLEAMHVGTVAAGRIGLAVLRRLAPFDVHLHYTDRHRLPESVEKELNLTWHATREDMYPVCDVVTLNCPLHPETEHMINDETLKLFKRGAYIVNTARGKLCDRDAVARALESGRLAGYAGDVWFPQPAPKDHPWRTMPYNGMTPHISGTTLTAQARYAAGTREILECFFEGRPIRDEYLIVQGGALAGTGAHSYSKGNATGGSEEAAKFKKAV

Structure (SMILES)	HPLC of remaining L-threonine after FDAA derivatization (EcTAL)	NAD+ reduction at 340 nm, 96-well plate (PFDH)
C[C@@H](O)[C@H](N)C(=O)O [L-threonine]	The activity of EcTAL toward L‐threonine was determined by measuring the decrease of threonine	
O=CO [sodium formate]		the activity of the FDH toward the oxidation of formate were determined
